We go through eight cell lines from the supplement of paper PMC10307832.

Holding throughout (assay): relative viability (nuclei count vs DMSO), 5 days (fraction); higher = more cells survive
Compound in the experiment “Ponatinib + Trametinib”: Cc1ccc(C(=O)Nc2ccc(CN3CCN(C)CC3)c(C(F)(F)F)c2)cc1C#Cc1cnc2cccnn12 [Ponatinib] + CC(=O)Nc1cccc(-n2c(=O)n(C3CC3)c(=O)c3c(Nc4ccc(I)cc4F)n(C)c(=O)c(C)c32)c1 [Trametinib] (partner 0.02 µM)
In short, it runs like this: (§1)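 One day after seeding in 1536-well plates, lung cancer cell lines were dosed by pin tool. Dosing was either single-drug or a fixed anchor-drug dose plus five library-drug doses (not always all listed) in √10 steps. After 5 days, nuclei were stained in one fix-and-stain step and counted on 4× images, and relative viability is the nuclei count of treated wells over that of vehicle wells, given as the median of duplicate plates.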

Compound in the experiment “Ponatinib + Palbociclib”: Cc1ccc(C(=O)Nc2ccc(CN3CCN(C)CC3)c(C(F)(F)F)c2)cc1C#Cc1cnc2cccnn12 [Ponatinib] + CC(=O)c1c(C)c2cnc(Nc3ccc(N4CCNCC4)cn3)nc2n(C2CCCC2)c1=O [Palbociclib] (partner 0.5 µM)
In short, it runs like this: as §1

Compound in the experiment “Ponatinib + Navitoclax”: Cc1ccc(C(=O)Nc2ccc(CN3CCN(C)CC3)c(C(F)(F)F)c2)cc1C#Cc1cnc2cccnn12 [Ponatinib] + CC1(C)CCC(c2ccc(Cl)cc2)=C(CN2CCN(c3ccc(C(=O)NS(=O)(=O)c4ccc(N[C@H](CCN5CCOCC5)CSc5ccccc5)c(S(=O)(=O)C(F)(F)F)c4)cc3)CC2)C1 [Navitoclax] (partner 0.5 µM)
In short, it runs like this:
as §1

Compound in the experiment “Ponatinib + Linsitinib”: Cc1ccc(C(=O)Nc2ccc(CN3CCN(C)CC3)c(C(F)(F)F)c2)cc1C#Cc1cnc2cccnn12 [Ponatinib] + C[C@]1(O)C[C@@H](c2nc(-c3ccc4ccc(-c5ccccc5)nc4c3)c3c(N)nccn32)C1 [Linsitinib] (partner 1 µM)
In short, it runs like this:
as §1

Compound in the experiment “Ponatinib + Dasatinib”: Cc1ccc(C(=O)Nc2ccc(CN3CCN(C)CC3)c(C(F)(F)F)c2)cc1C#Cc1cnc2cccnn12 [Ponatinib] + Cc1nc(Nc2ncc(C(=O)Nc3c(C)cccc3Cl)s2)cc(N2CCN(CCO)CC2)n1 [Dasatinib] (partner 0.075 µM)
In short, it runs like this: as §1

HARA: the relative viability stood at 0.633 in the experiment with Ponatinib + Trametinib (first compound 0.002 µM); 0.581 with Ponatinib + Trametinib (first compound 0.006325 µM); 0.633 with Ponatinib + Trametinib (first compound 0.06325 µM); 0.443 in the experiment with Ponatinib + Trametinib (first compound 0.2 µM); 0.246 in the experiment with Ponatinib + Palbociclib (first compound 0.002 µM); 0.332 with Ponatinib + Palbociclib (first compound 0.006325 µM). Besides, the relative viability in the experiment with Ponatinib + Palbociclib (first compound 0.06325 µM) amounted to 0.228; with Ponatinib + Palbociclib (first compound 0.2 µM), 0.246; in the experiment with Ponatinib + Navitoclax (first compound 0.002 µM) it was 1.13; with Ponatinib + Navitoclax (first compound 0.006325 µM), 1.14; with Ponatinib + Navitoclax (first compound 0.06325 µM), 1.12; in the experiment with Ponatinib + Navitoclax (first compound 0.2 µM), 1.16. The relative viability in the experiment with Ponatinib + Linsitinib (first compound 0.002 µM) amounted to 0.916; with Ponatinib + Linsitinib (first compound 0.006325 µM), 0.916; with Ponatinib + Linsitinib (first compound 0.06325 µM), 0.976; with Ponatinib + Linsitinib (first compound 0.2 µM), 0.944; with Ponatinib + Dasatinib (first compound 0.002 µM) it was 0.281; with Ponatinib + Dasatinib (first compound 0.006325 µM), 0.215. Besides, the relative viability with Ponatinib + Dasatinib (first compound 0.06325 µM) was found to be 0.233; with Ponatinib + Dasatinib (first compound 0.2 µM) it was 0.173.
Consider HCC-15, for which the relative viability with Ponatinib + Trametinib (first compound 0.002 µM) amounted to 0.348; with Ponatinib + Trametinib (first compound 0.006325 µM) it was 0.381; with Ponatinib + Trametinib (first compound 0.06325 µM), 0.446; with Ponatinib + Trametinib (first compound 0.2 µM), 0.338; with Ponatinib + Palbociclib (first compound 0.002 µM), 0.675; with Ponatinib + Palbociclib (first compound 0.006325 µM) it was 0.752. Besides, the relative viability with Ponatinib + Palbociclib (first compound 0.06325 µM) is 0.798; with Ponatinib + Palbociclib (first compound 0.2 µM), 0.672; in the experiment with Ponatinib + Navitoclax (first compound 0.002 µM) it was 0.671; with Ponatinib + Navitoclax (first compound 0.006325 µM), 0.738; with Ponatinib + Navitoclax (first compound 0.06325 µM) it was 0.83; with Ponatinib + Navitoclax (first compound 0.2 µM), 0.661. Moreover, the relative viability with Ponatinib + Linsitinib (first compound 0.002 µM) worked out at 0.923; with Ponatinib + Linsitinib (first compound 0.006325 µM), 0.873; in the experiment with Ponatinib + Linsitinib (first compound 0.06325 µM), 0.953; with Ponatinib + Linsitinib (first compound 0.2 µM), 0.815; with Ponatinib + Dasatinib (first compound 0.002 µM), 0.585; with Ponatinib + Dasatinib (first compound 0.006325 µM), 0.61. Also, the relative viability is 0.828 in the experiment with Ponatinib + Dasatinib (first compound 0.06325 µM) and 0.61 with Ponatinib + Dasatinib (first compound 0.2 µM).
In the case of HCC-44, the relative viability was found to be 1 with Ponatinib + Trametinib (first compound 0.002 µM); 1.02 with Ponatinib + Trametinib (first compound 0.006325 µM); 1.05 in the experiment with Ponatinib + Trametinib (first compound 0.06325 µM); 1.06 with Ponatinib + Trametinib (first compound 0.2 µM); 0.891 with Ponatinib + Palbociclib (first compound 0.002 µM); 0.981 with Ponatinib + Palbociclib (first compound 0.006325 µM). In addition, the relative viability was 0.932 in the experiment with Ponatinib + Palbociclib (first compound 0.06325 µM); 0.852 with Ponatinib + Palbociclib (first compound 0.2 µM); 0.941 with Ponatinib + Navitoclax (first compound 0.002 µM); 0.98 with Ponatinib + Navitoclax (first compound 0.006325 µM); 1.16 in the experiment with Ponatinib + Navitoclax (first compound 0.06325 µM); 0.93 in the experiment with Ponatinib + Navitoclax (first compound 0.2 µM). The relative viability stood at 0.657 with Ponatinib + Linsitinib (first compound 0.002 µM), 0.71 with Ponatinib + Linsitinib (first compound 0.006325 µM), 0.744 with Ponatinib + Linsitinib (first compound 0.06325 µM) and 0.683 in the experiment with Ponatinib + Linsitinib (first compound 0.2 µM).
For HCC-78, the relative viability was found to be 0.684 with Ponatinib + Trametinib (first compound 0.002 µM); 0.673 with Ponatinib + Trametinib (first compound 0.006325 µM); 0.808 with Ponatinib + Trametinib (first compound 0.06325 µM); 0.638 in the experiment with Ponatinib + Trametinib (first compound 0.2 µM); 0.422 with Ponatinib + Palbociclib (first compound 0.002 µM); 0.528 with Ponatinib + Palbociclib (first compound 0.006325 µM). The relative viability is 0.418 with Ponatinib + Palbociclib (first compound 0.06325 µM); 0.471 in the experiment with Ponatinib + Palbociclib (first compound 0.2 µM); 0.578 with Ponatinib + Navitoclax (first compound 0.002 µM); 0.725 in the experiment with Ponatinib + Navitoclax (first compound 0.006325 µM); 0.981 in the experiment with Ponatinib + Navitoclax (first compound 0.06325 µM); 0.629 in the experiment with Ponatinib + Navitoclax (first compound 0.2 µM). The relative viability with Ponatinib + Linsitinib (first compound 0.002 µM) was 0.412; in the experiment with Ponatinib + Linsitinib (first compound 0.006325 µM) it was 0.519; with Ponatinib + Linsitinib (first compound 0.06325 µM), 0.605; in the experiment with Ponatinib + Linsitinib (first compound 0.2 µM), 0.478; with Ponatinib + Dasatinib (first compound 0.002 µM), 0.33; with Ponatinib + Dasatinib (first compound 0.006325 µM) it was 0.35. Moreover, the relative viability with Ponatinib + Dasatinib (first compound 0.06325 µM) stood at 0.296; with Ponatinib + Dasatinib (first compound 0.2 µM), 0.382.
For the cell line IA-LM, the relative viability with Ponatinib + Navitoclax (first compound 0.002 µM) came to 0.658; in the experiment with Ponatinib + Navitoclax (first compound 0.006325 µM), 0.62; with Ponatinib + Navitoclax (first compound 0.06325 µM) it was 0.749; in the experiment with Ponatinib + Navitoclax (first compound 0.2 µM), 0.684; in the experiment with Ponatinib + Linsitinib (first compound 0.002 µM) it was 0.538; with Ponatinib + Linsitinib (first compound 0.006325 µM), 0.512. The relative viability was 0.529 with Ponatinib + Linsitinib (first compound 0.06325 µM) and 0.535 in the experiment with Ponatinib + Linsitinib (first compound 0.2 µM).
Regarding LCLC-103H, the relative viability with Ponatinib + Trametinib (first compound 0.002 µM) worked out at 0.678; with Ponatinib + Trametinib (first compound 0.006325 µM) it was 0.718; with Ponatinib + Trametinib (first compound 0.06325 µM), 0.673; with Ponatinib + Trametinib (first compound 0.2 µM) it was 0.579; in the experiment with Ponatinib + Palbociclib (first compound 0.002 µM), 0.464; in the experiment with Ponatinib + Palbociclib (first compound 0.006325 µM), 0.517. For the same cell line, the relative viability was determined as 0.491 with Ponatinib + Palbociclib (first compound 0.06325 µM); 0.431 with Ponatinib + Palbociclib (first compound 0.2 µM); 0.952 with Ponatinib + Linsitinib (first compound 0.002 µM); 1.15 with Ponatinib + Linsitinib (first compound 0.006325 µM); 1.15 with Ponatinib + Linsitinib (first compound 0.06325 µM); 0.889 in the experiment with Ponatinib + Linsitinib (first compound 0.2 µM). The relative viability in the experiment with Ponatinib + Dasatinib (first compound 0.002 µM) came to 0.386; with Ponatinib + Dasatinib (first compound 0.006325 µM), 0.573; with Ponatinib + Dasatinib (first compound 0.06325 µM) it was 0.532; with Ponatinib + Dasatinib (first compound 0.2 µM), 0.394.
On to NCI-H358, for which the relative viability turned out to be 0.162 with Ponatinib + Trametinib (first compound 0.002 µM); 0.147 with Ponatinib + Trametinib (first compound 0.006325 µM); 0.12 with Ponatinib + Trametinib (first compound 0.06325 µM); 0.103 with Ponatinib + Trametinib (first compound 0.2 µM); 0.137 in the experiment with Ponatinib + Palbociclib (first compound 0.002 µM); 0.129 in the experiment with Ponatinib + Palbociclib (first compound 0.006325 µM). Moreover, the relative viability with Ponatinib + Palbociclib (first compound 0.06325 µM) came out at 0.148; with Ponatinib + Palbociclib (first compound 0.2 µM), 0.136; in the experiment with Ponatinib + Linsitinib (first compound 0.002 µM), 0.847; in the experiment with Ponatinib + Linsitinib (first compound 0.006325 µM), 0.771; with Ponatinib + Linsitinib (first compound 0.06325 µM), 0.758; with Ponatinib + Linsitinib (first compound 0.2 µM), 0.522. For the same cell line, the relative viability is 0.185 with Ponatinib + Dasatinib (first compound 0.002 µM), 0.184 with Ponatinib + Dasatinib (first compound 0.006325 µM), 0.236 with Ponatinib + Dasatinib (first compound 0.06325 µM) and 0.187 with Ponatinib + Dasatinib (first compound 0.2 µM).
Regarding NCI-H522, the relative viability amounted to 0.739 with Ponatinib + Trametinib (first compound 0.002 µM); 0.876 in the experiment with Ponatinib + Trametinib (first compound 0.006325 µM); 0.594 in the experiment with Ponatinib + Trametinib (first compound 0.06325 µM); 0.629 with Ponatinib + Trametinib (first compound 0.2 µM); 1.05 with Ponatinib + Palbociclib (first compound 0.002 µM); 0.982 in the experiment with Ponatinib + Palbociclib (first compound 0.006325 µM). Moreover, the relative viability with Ponatinib + Palbociclib (first compound 0.06325 µM) was 1.18; with Ponatinib + Palbociclib (first compound 0.2 µM), 0.814; with Ponatinib + Dasatinib (first compound 0.002 µM) it was 0.782; in the experiment with Ponatinib + Dasatinib (first compound 0.006325 µM) it was 0.846; with Ponatinib + Dasatinib (first compound 0.06325 µM), 0.703; in the experiment with Ponatinib + Dasatinib (first compound 0.2 µM), 0.816.
